Reference: patent US8936806B2, “Periostin induces proliferation of cardiomyocytes and promotes cardiac regeneration” (Children's Medical Center Corporation, priority 2007, dated 2015)

Experiments:
[1] = test system: adult ventricular cardiomyocytes; assay: Transcription of fetal gene program (RT-PCR) in adult ventricular cardiomyocytes; format: cell-based, rat
[2] = test system: atrial natriuretic factor (ANF); assay: Transcription of atrial natriuretic factor by RT-PCR in neonatal cardiomyocytes; format: cell-based, rat; conditions: 72 hr stimulation
Protocol: RNA was prepared using Trizol reagent (Invitrogen) from neonatal rat ventricular cardiomyocytes after 72 hr of stimulation. Complementary DNA was synthesized from 2 μg RNA with the SuperScriptIII kit (Invitrogen) using oligo-dT primers. One μL cDNA was used as template for 20 μL PCR-reactions (95° C. for 2 min, 30 cycles of 95° C. for 2 min, 55° C. for 2 min, 72° C. for 5 min, followed by 72° C. for 10 min). Oligonucleotide primers used for detection of ANF were F: 5′-[…]-3′ (Seq ID No. 2), R: 5′-[…]-3′ (Seq ID No. 3), β-actin were F: 5′-[…]-3′ (Seq ID No. 4), R: 5′-[…]-3′ (Seq ID No. 5), […] were F: 5′-[…]-3′ (Seq ID No. 6), R: 5′-[…]-3′ (Seq ID No. 7); SMA were F: 5′-[…]-3′ (Seq ID No. 8), R: 5′-[…]-3′ (Seq ID No. 9); SERCA2 were F: 5′-[…]-3′ (Seq ID No. 10), R: 5′-[…]-3′ (Seq ID No. 11), and for GAPDH: 5′-[…]-3′ (Seq ID No. 12), R: 5′-[…]-3′ (Seq ID No. 13).

[3] = test system: differentiated cardiomyocytes; assay: Hypertrophy by [3H]leucine uptake; format: cell-based, rat; conditions: phenylephrine 10 mM [sic]; all time points tested
Description: Induction of the fetal gene program is accompanied by increased protein synthesis leading to cardiomyocyte hypertrophy. We assessed cardiomyocyte hypertrophy by measuring uptake of [^3H]leucine.

[4] = test system: primary adult rat ventricular cardiomyocytes; assay: DNA synthesis (BrdU uptake, immunofluorescence) in primary adult rat ventricular cardiomyocytes; format: cell-based
Description: Primary neonatal rat ventricular cardiomyocytes were isolated using the Neomyts kit (Cellutron, Highland Park, N.J.), seeded at a density of 10^5 cells/cm^2 onto gelatin-coated cover slips, stimulated for 3 days, and labeled with BrdU for the terminal 2 days. Primary adult ventricular cardiomyocytes were isolated from male (300 gm) Wistar rats (Charles River Laboratories) and maintained as described (Engel, F. B. et al. p38 MAP kinase inhibition enables proliferation of adult mammalian cardiomyocytes. Genes Dev 19, 1175-87 (2005)). Adult cardiomyocytes were stimulated daily for 9 days and labeled with 30 μM BrdU for the terminal 3 days. Cardiomyocytes were stimulated with periostin (500 ng/mL) and FGF (100 ng/mL). […] The vehicle used to dissolve factors or chemicals was added to unstimulated samples, which were then processed together with the test samples. DNA-synthesis was analyzed by visualization of BrdU uptake and cytokinesis was determined by detection of the cleavage furrow and the midbody with an antibody against aurora B kinase as described (Engel, F. B. et al. p38 MAP kinase inhibition enables proliferation of adult mammalian cardiomyocytes. Genes Dev 19, 1175-87 (2005)). Signals were visualized with secondary antibodies conjugated to Alexa 488, Alexa 546, Alexa 594, and Alexa 647 (Invitrogen). […] For image acquisition, the value for γ was set at 1 and the lookup table settings were linear. Primary adult rat ventricular cardiomyocytes were grown on gridded cover slips (Electron Microscopy Services, Ft. Washington, Pa.) and imaged in phase contrast at 10× magnification. Cardiomyocytes were transduced with an adenovirus leading to nuclear expression of histone2B-GFP (Shi, Q. & King, R. W. Nature 437, 1038-42 (2005)) under control of the chicken troponin T promoter ([…]. Am J Physiol Cell Physiol 286, […]-64 (2004)). Nuclei were visualized at 10× magnification with a mercury-arc lamp dimmed to 1.5% with a neutral density filter. […] Images of BrdU-positive cardiomyocytes were matched with the corresponding images from before stimulation. For quantification, differentiated cardiomyocytes were defined as striated rod-shaped structures with length/width ratio>1.5.

[5] = test system: primary adult rat ventricular cardiomyocytes; assay: Cytokinesis (aurora B kinase) in primary adult rat ventricular cardiomyocytes; format: cell-based; conditions: 9 days stimulation
Description: (§1) Primary neonatal rat ventricular cardiomyocytes were isolated using the Neomyts kit (Cellutron, Highland Park, N.J.), seeded at a density of 10^5 cells/cm^2 onto gelatin-coated cover slips, stimulated for 3 days, and labeled with BrdU for the terminal 2 days. Primary adult ventricular cardiomyocytes were isolated from male (300 gm) Wistar rats (Charles River Laboratories) and maintained as described (Engel, F. B. et al. p38 MAP kinase inhibition enables proliferation of adult mammalian cardiomyocytes. Genes Dev 19, 1175-87 (2005)). Adult cardiomyocytes were stimulated daily for 9 days and labeled with 30 μM BrdU for the terminal 3 days. Cardiomyocytes were stimulated with periostin (500 ng/mL) and FGF (100 ng/mL). Inhibiting antibodies were added at a concentration of 10 μg/mL, cRGD at 10 μM, U0126 at 10 μM, PD98059 at 1 μM, LY294002 at 10 μM, and Wortmannin at 0.1 μM 30 min prior to stimulation. The vehicle used to dissolve factors or chemicals was added to unstimulated samples, which were then processed together with the test samples.
(§2) DNA-synthesis was analyzed by visualization of BrdU uptake and cytokinesis was determined by detection of the cleavage furrow and the midbody with an antibody against aurora B kinase as described (Engel, F. B. et al. p38 MAP kinase inhibition enables proliferation of adult mammalian cardiomyocytes. Genes Dev 19, 1175-87 (2005)). Signals were visualized with secondary antibodies conjugated to Alexa 488, Alexa 546, Alexa 594, and Alexa 647 (Invitrogen). Nuclei were visualized with 4′,6′-diamidino-2-phenylindole (DAPI, Invitrogen). For image acquisition, the value for γ was set at 1 and the lookup table settings were linear.

[6] = test system: primary neonatal rat ventricular cardiomyocytes; assay: DNA synthesis, mitosis and cytokinesis in primary neonatal rat ventricular cardiomyocytes; format: cell-based; conditions: periostin plus FGF
Description: as §1, §2

| cytokinesis, of all differentiated cardiomyocytes [5] | Molecule | transcription of SERCA2 [1] | transcription of β-MHC, SMA and ANF [1] | transcription of atrial natriuretic factor (ANF) [2] | [3H]leucine uptake (hypertrophy) [3] | cardiomyocyte DNA synthesis ([4]; 9 days stimulation (periostin 500 ng/mL, FGF 100 ng/mL), BrdU terminal 3 days) | effect on periostin-induced cardiomyocyte DNA synthesis when added ([4]; FGF 100 ng/ml, SB203580 5 mM or 10 mM as printed) | effect of co-stimulation with periostin on DNA synthesis [6] |
| --- | --- | --- | --- | --- | --- | --- | --- | --- |
|  | CNC[C@H](O)c1cccc(O)c1 [phenylephrine, reference compound] | slightly reduced | increased transcription | induced | induced |  |  |  |
| 0.3±0.1% | FGF: FGF1 provided by R&D Systems; known stimulus of cardiomyocyte DNA synthesis |  |  | induced |  | 1.3±0.6% | increased | additive effect |
